Experimental data as given in patent US5444042A, “Method of treatment of neurodegeneration with calpain inhibitors” (Cortex Pharmaceuticals, priority 1994, dated 1995).
Where a SMILES comes first, the peptide text is derived from it.

Tests used:
Calpain I [1] = molecular target: Calpain I (Rattus norvegicus, UniProt P97571); assay: Kapp/[I] progress curve method, rat Calpain I (Table 1C); type: biochemical; details: Suc-leu-tyr-amidomethylcoumarin
Method: (§1) The Halo-Ketone Peptides, like the substituted isocoumarins, are irreversible inhibitors of Calpain. We determined the Kapp /[I] values for various members of this class of compounds against Calpains I and II. For comparison, we also determined these values against the additional thiol proteases Papain and Cathepsin B for at least one Halo-Ketone Peptide.
(§2) We assayed Calpain I and II using Suc-leu-tyr-amidomethylcoumarin. Papain was assayed using benzoyl-arg-4-nitroanilide, and Cathepsin B (bovine) was assayed using CBZ-lys-4-nitrophenyl ester. We followed the progress curve method of Tian and Tsou, Biochemistry, 21:1028-1032 (1982), the disclosure of which is hereby incorporated by reference, to derive kinetic data. Briefly, this method makes use of the equation: [formula] where [P.infin. ] represents the concentration of product formed at a time approaching infinity, A is the Kapp in the presence of substrate (S), K is the Michaelis constant and [Y] is the concentration of the inhibitor. Since [S] and [Y] are known and V and K can be determined, Kapp can be readily determined.

Calpain II [2] = assay: Kapp/[I] progress curve method, Calpain II (Table 1C); type: biochemical; design: unit not given here; details: Rabbit Calpain II, Suc-leu-tyr-amidomethylcoumarin
Method: as §1, §2

Calpain within platelets = assay: Platelet membrane permeation assay, spectrin proteolysis (Examples 4A, 4B); type: cell-based, rat; details: for inhibition of Calpain within platelets: 100 μM, A23187 1 μM; for IC50: concentration at which 50% of the Calpain activation present in controls occurred
Method in brief: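 Rat (Sprague-Dawley) platelets at 10^7 cells/ml in HEPES buffer pH 7.4, preincubated 5 min with inhibitor, then 5 min with 1 μM A23187 to activate calpain. Spectrin proteolysis assessed by SDS-PAGE and anti-spectrin immunoblot, quantified by densitometry.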

[3] = tested on: Calpain in crude brain extracts; assay: Ca2+-stimulated spectrin proteolysis in crude brain extracts (Example 2); type: biochemical; details: 100 μM
Method in brief: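 Brain tissue was homogenized in 10 mM Tris pH 7.4, 0.32 M sucrose, 1 mM EGTA and 1 mM DTT, and nuclei and debris were removed. Calpain activity was scored as Ca^2+-stimulated proteolysis of endogenous spectrin.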

Cathepsin B = Cathepsin B (Bos taurus, UniProt P07688); assay: Cathepsin B KI (Table 1B(ii)); type: biochemical; details: read-out: KI CathB
Source text: (§3) We tested the ability of an additional group of Peptide Keto-Compounds to inhibit several proteases in order to evaluate their specificity for Calpain.

PP Elastase = PP Elastase (Sus scrofa, UniProt P00772); assay: PP Elastase KI (Table 1B(ii)); type: biochemical
Source text: as §3

Calpain II [4] = assay: Calpain II KI (Table 1B(ii)); type: biochemical
Source text: as §3

Calpain I [5] = molecular target: T1, Calpain I (Homo sapiens, UniProt P07384); assay: Calpain I KI (Table 1B(ii)); type: biochemical; details: for Ki: Table 1B(ii)
T1 sequence (P07384 1-714): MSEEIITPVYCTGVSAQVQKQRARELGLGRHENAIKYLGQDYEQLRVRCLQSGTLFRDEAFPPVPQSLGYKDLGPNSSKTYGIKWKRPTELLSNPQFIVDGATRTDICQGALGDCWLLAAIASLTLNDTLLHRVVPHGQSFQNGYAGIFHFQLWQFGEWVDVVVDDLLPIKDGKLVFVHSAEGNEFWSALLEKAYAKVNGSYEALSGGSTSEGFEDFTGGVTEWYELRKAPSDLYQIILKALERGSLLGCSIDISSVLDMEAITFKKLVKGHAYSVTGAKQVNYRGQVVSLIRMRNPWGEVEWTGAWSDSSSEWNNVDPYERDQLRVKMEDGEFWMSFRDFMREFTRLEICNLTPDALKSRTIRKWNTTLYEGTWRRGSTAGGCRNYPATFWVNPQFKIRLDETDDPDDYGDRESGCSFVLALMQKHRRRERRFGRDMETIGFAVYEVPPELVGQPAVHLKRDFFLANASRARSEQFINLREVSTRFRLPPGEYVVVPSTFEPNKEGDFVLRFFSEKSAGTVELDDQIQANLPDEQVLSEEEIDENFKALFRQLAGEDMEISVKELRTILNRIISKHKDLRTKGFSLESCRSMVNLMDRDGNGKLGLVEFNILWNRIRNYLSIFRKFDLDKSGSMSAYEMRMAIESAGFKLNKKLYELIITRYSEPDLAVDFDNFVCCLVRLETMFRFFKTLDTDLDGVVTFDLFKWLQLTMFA
T1 sequence (P04632 1-268 partner): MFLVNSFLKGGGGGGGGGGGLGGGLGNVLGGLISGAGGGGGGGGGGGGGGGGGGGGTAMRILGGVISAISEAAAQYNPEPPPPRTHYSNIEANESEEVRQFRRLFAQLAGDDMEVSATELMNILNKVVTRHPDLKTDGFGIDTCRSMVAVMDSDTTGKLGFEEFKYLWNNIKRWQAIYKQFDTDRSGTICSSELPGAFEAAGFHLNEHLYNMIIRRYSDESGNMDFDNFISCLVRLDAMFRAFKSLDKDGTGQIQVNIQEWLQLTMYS
Source text: as §3

Chym = Chym (Bos taurus, UniProt P00766); assay: Chym KI (Table 1B(ii)); type: biochemical
Source text: as §3

[6] = Stability in liver homogenates; type: in vitro ADME; details: unit assumed
Source text: (§4) We determined the haft-life of several Peptide Keto-Compounds in both plasma and liver homogenates.

Stability in plasma = type: in vitro ADME; details: unit assumed
Source text: as §4

[7] = tested on: rats with middle cerebral artery occlusion; assay: MCA occlusion model (Example 6); type: in vivo, rat; details: infusion into femoral vein by 24 hr minipump; 24 hours after occlusion (FIG. 2)
Method: Male Sprague-Dawley albino rats weighing approximately 250-300 grams were anesthetized with pentobarbital (70 mg/kg, i.p.). The neck region was shaven and a 2 cm incision was made. The superficial fascia was teased away with tissue forceps and blunt tip tissue scissors using a spread method. The right common carotid artery was isolated away from the vagus nerve and tied off with a single suture (3.0 silk). The external carotid was permanently occluded by suturing. The bifurcation of the internal carotid and pterygopalatine arteries was exposed and a single microaneurysm clip was placed on the pterygopalatine. Another microaneurysm clip was placed on the common carotid just proximal to the external/internal bifurcation. A suture was placed loosely around the common carotid and a lumen was made in the vessel with the tip of a 25 g needle. A 40 mm nylon suture was prepared by melting the tip to smooth the pointed end and marked with a dot exactly 17.5 mm from the melted end. […]
Twenty-four hours after occlusion, the brains of these animals were removed and sliced into 2 mm sections. […] The sizes of the infarcted tissue zone ([…]) and impaired zone (area with partial development of red color) were evaluated using quantitative morphometry. […]

hippocampal slices = assay: Hippocampal slice EPSP recovery from severe hypoxia (FIG. 5); type: cell-based, rat; details: one hour incubation
Method: These studies were performed in a manner similar to that of Example 7B, except using a hypoxic environment in place of the anoxia of Example 7B. […] The control slices experienced little or no recovery.

Sequence of PP Elastase (P00772 27-266): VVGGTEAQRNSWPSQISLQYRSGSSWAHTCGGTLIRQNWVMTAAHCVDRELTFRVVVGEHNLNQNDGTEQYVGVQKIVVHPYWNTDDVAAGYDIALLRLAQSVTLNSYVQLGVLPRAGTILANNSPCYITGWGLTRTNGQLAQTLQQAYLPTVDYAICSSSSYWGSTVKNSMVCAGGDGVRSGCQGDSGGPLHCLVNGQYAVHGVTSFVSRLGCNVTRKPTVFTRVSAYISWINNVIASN
Sequence of Calpain I (Rattus norvegicus, UniProt P97571) (P97571 whole entry): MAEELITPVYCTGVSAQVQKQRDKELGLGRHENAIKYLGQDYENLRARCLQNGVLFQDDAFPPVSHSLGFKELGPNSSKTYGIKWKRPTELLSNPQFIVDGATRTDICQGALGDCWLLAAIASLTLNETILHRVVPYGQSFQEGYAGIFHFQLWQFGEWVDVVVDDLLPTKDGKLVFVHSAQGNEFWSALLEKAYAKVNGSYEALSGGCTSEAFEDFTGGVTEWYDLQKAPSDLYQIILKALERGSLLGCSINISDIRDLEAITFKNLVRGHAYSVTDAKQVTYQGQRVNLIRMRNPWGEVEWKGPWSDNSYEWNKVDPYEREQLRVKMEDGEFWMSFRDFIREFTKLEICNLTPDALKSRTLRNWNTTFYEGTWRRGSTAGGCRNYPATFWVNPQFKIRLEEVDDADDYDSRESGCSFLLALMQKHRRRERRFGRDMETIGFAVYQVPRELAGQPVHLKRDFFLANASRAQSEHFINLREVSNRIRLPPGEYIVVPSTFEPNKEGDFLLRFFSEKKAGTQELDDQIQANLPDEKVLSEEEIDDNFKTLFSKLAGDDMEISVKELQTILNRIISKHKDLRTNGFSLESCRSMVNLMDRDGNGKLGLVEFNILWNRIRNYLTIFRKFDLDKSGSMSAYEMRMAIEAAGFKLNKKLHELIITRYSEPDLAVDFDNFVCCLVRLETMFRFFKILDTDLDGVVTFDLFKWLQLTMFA
Sequence of Calpain I (Rattus norvegicus, UniProt P97571) (Q64537 whole entry partner): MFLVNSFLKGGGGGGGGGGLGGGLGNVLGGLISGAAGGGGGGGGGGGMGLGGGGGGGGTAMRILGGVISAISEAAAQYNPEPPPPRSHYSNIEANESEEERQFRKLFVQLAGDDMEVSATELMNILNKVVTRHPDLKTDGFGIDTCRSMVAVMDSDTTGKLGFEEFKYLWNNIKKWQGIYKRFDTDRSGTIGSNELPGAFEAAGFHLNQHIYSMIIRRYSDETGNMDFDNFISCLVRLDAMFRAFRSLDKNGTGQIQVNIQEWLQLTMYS

Kapp/[I] CI (Calpain I [1])	Ki (Cathepsin B) [µM]	Ki (PP Elastase) [µM]	Ki (Calpain II [4]) [µM]	Ki (Calpain I [5]) [µM]	better inhibitor of calpain I than Z-Leu-Phe-CONH-Et (Calpain I [5]; ratio of KI values) [fold]	Ki (Chym) [µM]	t1/2 liver [6] [h]	IC50 (Calpain within platelets) [µM]	t1/2 plasma (Stability in plasma) [h]	SMILES	Kapp/[I] CII (Calpain II [2])	inhibition of Calpain within platelets (Calpain within platelets)	inhibition of spectrin proteolysis in crude brain extracts [3]	size of infarcted area [7]	percent recovery of EPSP from severe hypoxia (FIG. 5) (hippocampal slices) [%]
25900										CC(=O)N[C@@H](CC(C)C)C(=O)N[C@@H](Cc1ccccc1)C(=O)CCl [Ac-Leu-Phe-CH2 Cl] (HELM PEPTIDE1{[ac].L.F.[ClC[*:1]]}$$$$V2.0)	33400	significant inhibition	significant inhibition		
284000										CC(C)C[C@H](NC(=O)CNC(=O)OCc1ccccc1)C(=O)N[C@@H](Cc1ccccc1)C(=O)CCl [Z-Gly-Leu-Phe-CH2 Cl, reference compound] (HELM PEPTIDE1{[O=C(OCc1ccccc1)[*:2]].G.L.F.[ClC[*:1]]}$$$$V2.0)	946000	significant inhibition	significant inhibition		
	2.4	65	0.23	0.5	14	> 150	> 1	1.5	> 1	CCNC(=O)C(=O)[C@H](CC)NC(=O)[C@H](CC(C)C)NC(=O)OCc1ccccc1 [Z-Leu-Abu-CONHEt, Z-Leu-Abu-CONH-Et]				reduction in the size of the infarcted area	
	6	> 150	0.32	7		73	> 1	1.7	> 1	CCNC(=O)C(=O)[C@H](Cc1ccccc1)NC(=O)[C@H](CC(C)C)NC(=O)OCc1ccccc1 [Z-Leu-Phe-CONHEt, Z-Leu-Phe-CONH-Et]				reduction in the size of the infarcted area	~100
